Reference: ChEMBL document CHEMBL5120960, “Unveiling the Structure-Activity Relationships at the Orthosteric Binding Site of P2X Ion Channels: The Route to Selectivity” (J Med Chem, 2022)

Tests used:
Type in all cases: cell-based
[1] = biological target: T1, P2X purinoceptor 1 (Homo sapiens, UniProt P51575); experiment: […] activity at human P2X1R expressing CHO cells assessed as reduction in intracellular Ca2+ influx pretreated with Fluo-4 for 1 hr followed by compound addition and further incubated for 30 mins in presence of ATP by multimode plate reader analysis
T1 sequence (P51575 whole entry): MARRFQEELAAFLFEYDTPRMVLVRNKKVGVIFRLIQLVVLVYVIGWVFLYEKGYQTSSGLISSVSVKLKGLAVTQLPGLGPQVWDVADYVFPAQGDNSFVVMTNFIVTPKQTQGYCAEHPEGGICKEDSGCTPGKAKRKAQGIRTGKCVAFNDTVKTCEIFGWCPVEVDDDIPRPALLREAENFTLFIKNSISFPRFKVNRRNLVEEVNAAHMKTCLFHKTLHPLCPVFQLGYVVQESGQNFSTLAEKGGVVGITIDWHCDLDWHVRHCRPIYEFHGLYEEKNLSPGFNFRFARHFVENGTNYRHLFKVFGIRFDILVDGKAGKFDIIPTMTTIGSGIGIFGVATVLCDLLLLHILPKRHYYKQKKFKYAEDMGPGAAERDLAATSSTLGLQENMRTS

[2] = biological target: T2, P2X purinoceptor 2 (Homo sapiens, UniProt Q9UBL9); experiment: […] activity at human P2X2R expressing CHO cells assessed as reduction in intracellular Ca2+ influx pretreated with Fluo-4 for 1 hr followed by compound addition and further incubated for 30 mins in presence of ATP by multimode plate reader analysis
T2 sequence (Q9UBL9 whole entry): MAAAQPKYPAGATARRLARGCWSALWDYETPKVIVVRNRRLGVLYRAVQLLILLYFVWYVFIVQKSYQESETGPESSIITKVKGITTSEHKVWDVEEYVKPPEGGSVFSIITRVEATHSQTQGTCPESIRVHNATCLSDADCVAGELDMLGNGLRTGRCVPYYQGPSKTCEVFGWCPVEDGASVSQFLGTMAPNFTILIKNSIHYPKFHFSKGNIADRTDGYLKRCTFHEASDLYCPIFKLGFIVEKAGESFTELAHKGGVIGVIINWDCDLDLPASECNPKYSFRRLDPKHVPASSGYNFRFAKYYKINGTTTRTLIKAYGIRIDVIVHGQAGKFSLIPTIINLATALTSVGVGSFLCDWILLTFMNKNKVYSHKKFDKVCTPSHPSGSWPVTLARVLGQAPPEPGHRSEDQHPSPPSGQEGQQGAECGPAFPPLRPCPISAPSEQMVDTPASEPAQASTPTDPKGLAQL

[3] = biological target: T3, P2X purinoceptor 3 (Homo sapiens, UniProt P56373); experiment: […] activity at human P2X3R expressing CHO cells assessed as reduction in intracellular Ca2+ influx pretreated with Fluo-4 for 1 hr followed by compound addition and further incubated for 30 mins in presence of ATP by multimode plate reader analysis
T3 sequence (P56373 whole entry): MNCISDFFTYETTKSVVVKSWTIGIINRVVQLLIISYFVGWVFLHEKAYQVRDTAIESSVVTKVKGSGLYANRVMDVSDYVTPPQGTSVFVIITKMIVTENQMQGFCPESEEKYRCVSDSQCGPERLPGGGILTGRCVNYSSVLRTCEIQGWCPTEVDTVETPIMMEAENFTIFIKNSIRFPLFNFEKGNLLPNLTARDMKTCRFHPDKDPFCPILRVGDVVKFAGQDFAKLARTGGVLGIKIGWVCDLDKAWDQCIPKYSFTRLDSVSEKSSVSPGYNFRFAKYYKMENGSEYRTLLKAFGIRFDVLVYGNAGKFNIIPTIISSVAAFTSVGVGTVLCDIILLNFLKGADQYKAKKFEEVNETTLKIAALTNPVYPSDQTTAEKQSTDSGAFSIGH

[4] = biological target: T4, P2X2/P2X3 heterotrimeric receptor (Homo sapiens, UniProt P56373+Q9UBL9); experiment: […] activity at human P2X2R/P2X3R expressing CHO cells assessed as reduction in intracellular Ca2+ influx pretreated with Fluo-4 for 1 hr followed by compound addition and further incubated for 30 mins in presence of ATP by multimode plate reader analysis
T4 sequence (Q9UBL9 whole entry): T2 sequence (Q9UBL9 whole entry)
T4 sequence (P56373 whole entry): T3 sequence (P56373 whole entry)

[5] = biological target: T5, P2X purinoceptor 4 (Homo sapiens, UniProt Q99571); experiment: […] activity at human P2X4R expressing HEK293 cells assessed as reduction in intracellular Ca2+ influx pretreated with Fluo-4 for 1 hr followed by compound addition and further incubated for 30 mins in presence of ATP by multimode plate reader analysis
T5 sequence (Q99571 whole entry): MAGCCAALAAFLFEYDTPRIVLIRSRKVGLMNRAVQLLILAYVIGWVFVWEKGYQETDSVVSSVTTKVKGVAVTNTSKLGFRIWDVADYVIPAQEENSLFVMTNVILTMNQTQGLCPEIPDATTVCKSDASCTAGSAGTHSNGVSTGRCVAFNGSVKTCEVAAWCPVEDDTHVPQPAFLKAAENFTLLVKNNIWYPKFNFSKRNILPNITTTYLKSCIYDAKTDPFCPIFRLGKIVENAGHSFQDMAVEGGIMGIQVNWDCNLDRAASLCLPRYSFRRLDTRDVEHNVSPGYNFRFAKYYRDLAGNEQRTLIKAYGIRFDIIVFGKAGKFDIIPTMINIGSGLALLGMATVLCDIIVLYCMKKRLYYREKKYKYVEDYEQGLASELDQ

[6] = biological target: T6, P2X purinoceptor 7 (Homo sapiens, UniProt Q99572); experiment: […] activity at human P2X7R expressing HEK293 cells assessed as reduction in intracellular Ca2+ influx pretreated with Fluo-4 for 1 hr followed by compound addition and further incubated for 30 mins in presence of ATP by multimode plate reader analysis
T6 sequence (Q99572 whole entry): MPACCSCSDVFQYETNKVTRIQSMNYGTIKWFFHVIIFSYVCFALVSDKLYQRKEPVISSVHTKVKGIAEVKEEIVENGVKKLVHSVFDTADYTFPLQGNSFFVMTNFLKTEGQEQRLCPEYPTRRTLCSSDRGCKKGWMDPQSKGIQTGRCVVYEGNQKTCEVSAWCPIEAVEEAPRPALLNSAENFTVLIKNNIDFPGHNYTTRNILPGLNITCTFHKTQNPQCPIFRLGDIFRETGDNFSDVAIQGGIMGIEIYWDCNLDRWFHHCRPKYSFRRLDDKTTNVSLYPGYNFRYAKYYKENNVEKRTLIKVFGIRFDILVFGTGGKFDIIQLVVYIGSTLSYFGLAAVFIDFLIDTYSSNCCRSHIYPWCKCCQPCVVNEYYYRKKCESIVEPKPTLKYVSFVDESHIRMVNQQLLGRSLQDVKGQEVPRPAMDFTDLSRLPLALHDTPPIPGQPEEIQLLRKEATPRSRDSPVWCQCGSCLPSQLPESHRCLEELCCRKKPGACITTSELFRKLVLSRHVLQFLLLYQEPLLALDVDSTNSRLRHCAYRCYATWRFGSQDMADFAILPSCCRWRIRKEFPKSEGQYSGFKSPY

[7] = biological target: T6, P2X purinoceptor 7; experiment: […] activity at human P2X7R expressed in HEK293 cells assessed as reduction in YO-PRO-1 iodide dye uptake preincubated for 30 mins followed by YO-PRO-1 iodide addition and measured after 2 hrs by fluorescence based multimode plate reader analysis
[8] = biological target: T1, P2X purinoceptor 1; experiment: Antagonist activity at human P2X1R expressing CHO cells assessed as reduction in intracellular Ca2+ influx pretreated with Fluo-4 for 1 hr followed by compound addition and further incubated for 30 mins in presence of ATP by multimode plate reader analysis
[9] = biological target: T2, P2X purinoceptor 2; experiment: Antagonist activity at human P2X2R expressing CHO cells assessed as reduction in intracellular Ca2+ influx pretreated with Fluo-4 for 1 hr followed by compound addition and further incubated for 30 mins in presence of ATP by multimode plate reader analysis
[10] = biological target: T3, P2X purinoceptor 3; experiment: Antagonist activity at human P2X3R expressing CHO cells assessed as reduction in intracellular Ca2+ influx pretreated with Fluo-4 for 1 hr followed by compound addition and further incubated for 30 mins in presence of ATP by multimode plate reader analysis
[11] = biological target: T4, P2X2/P2X3 heterotrimeric receptor; experiment: Antagonist activity at human P2X2R/P2X3R expressing CHO cells assessed as reduction in intracellular Ca2+ influx pretreated with Fluo-4 for 1 hr followed by compound addition and further incubated for 30 mins in presence of ATP by multimode plate reader analysis
[12] = biological target: T5, P2X purinoceptor 4; experiment: Antagonist activity at human P2X4R expressing HEK293 cells assessed as reduction in intracellular Ca2+ influx pretreated with Fluo-4 for 1 hr followed by compound addition and further incubated for 30 mins in presence of ATP by multimode plate reader analysis
[13] = biological target: T6, P2X purinoceptor 7; experiment: Antagonist activity at human P2X7R expressing HEK293 cells assessed as reduction in intracellular Ca2+ influx pretreated with Fluo-4 for 1 hr followed by compound addition and further incubated for 30 mins in presence of ATP by multimode plate reader analysis

IC50 [1] [µM] | IC50 [2] [µM] | IC50 [3] [µM] | IC50 [4] [µM] | IC50 [5] [µM] | IC50 [6] [µM] | IC50 [7] [µM] | EC50 [1] [µM] | EC50 [2] [µM] | EC50 [3] [µM] | EC50 [4] [µM] | EC50 [5] [µM] | EC50 [6] [µM] | EC50 [7] [µM] | IC50 [8] [µM] | IC50 [9] [µM] | IC50 [10] [µM] | IC50 [11] [µM] | IC50 [12] [µM] | IC50 [13] [µM] | Compound
6.46 | > 100 | 4.27 | 0.363 | > 100 | > 100 | > 100 |  |  |  |  |  |  |  |  |  |  |  |  |  | Nc1ncnc2c1ncn2[C@@H]1O[C@H](COP(=O)(O)OP(=O)(O)OP(=O)(O)O)[C@@H](O)[C@H]1N
 |  |  |  |  |  |  | > 100 | > 100 | > 100 | > 100 | > 100 | 16.6 | 22.4 | 15.8 | 10 | 18.6 | 11.5 | 6.31 | > 100 | Nc1ncnc2c1ncn2[C@@H]1O[C@H](COP(=O)(O)OP(=O)(O)OP(=O)(O)O)[C@@H](OC(=O)c2cccc3ccccc23)[C@H]1OC(=O)c1cccc2ccccc12
> 100 | 3.98 | > 100 | 2.69 | > 100 | > 100 | > 100 |  |  |  |  |  |  |  |  |  |  |  |  |  | O=P(O)(O)OP(=O)(O)OP(=O)(O)OC[C@H]1O[C@@H](n2cnc3c(NCc4ccccc4)ncnc32)[C@H](O)[C@@H]1O
> 100 | 5.62 | 10.5 | 5.37 | 2.75 | > 100 | > 100 |  |  |  |  |  |  |  |  |  |  |  |  |  | Nc1ncnc2c1ncn2[C@@H]1O[C@H](COP(=O)(O)OP(=O)(O)OP(=O)(O)O)[C@@H](O)[C@H]1F
1.51 | > 100 | 1.51 | 0.00832 | > 100 | > 100 | > 100 |  |  |  |  |  |  |  |  |  |  |  |  |  | O=P(O)(O)OP(=O)(O)OP(=O)(O)OC[C@H]1O[C@@H](n2cnc3c(S)ncnc32)[C@H](O)[C@@H]1O
> 100 | 0.00372 | 0.209 | 0.158 | 0.891 | > 100 | > 100 |  |  |  |  |  |  |  |  |  |  |  |  |  | O=P(O)(O)OP(=O)(O)OP(=O)(O)OC[C@H]1O[C@@H](n2cnc3c(Nc4ccccc4)ncnc32)[C@H](O)[C@@H]1O
> 100 | 0.417 | 1 | 0.282 | > 100 | > 100 | > 100 |  |  |  |  |  |  |  |  |  |  |  |  |  | O=P(O)(O)OP(=O)(O)OP(=O)(O)OC[C@H]1O[C@@H](n2cnc3c2ncn2ccnc32)[C@H](O)[C@@H]1O
